Measurements from US20190291112A1, “DROPLET MICROFLUIDICS FOR DRUG SCREENING” (University of Macau, priority 2018, published 2019).

Test system: NAS1605 primary nasopharyngeal tumor sample
Experiment: On chip drug screening of primary tumor dissociated cells
Type: cell-based, human
Settings: NAS1605, 16-24 h, normalized to mock treatment
Method: All human studies were conducted with the approval of the Panel on Research Ethics of University of Macau and the Research Ethics Committee of Kiang Wu Hospital, according to the Materials Transfer Agreement between University of Macau and Kiang Wu Hospital. Informed consent for sampling and publication without identifiable information was obtained from all participating patients. All patient sample names were double encoded by the university and the hospital, respectively, to remove any trace of patient identity during sample collection, transfer, processing and analysis. Primary tumors were obtained from surgery conducted at Kiang Wu Hospital immediately after tumor resection. Tumor tissue was dissociated as previously described. Briefly, tumor tissue was first cut into small pieces by a scalpel, then transferred to a 50 mL conical tube containing 5 mL Digestion Buffer I (DMEM/F12 medium containing 5% FBS, 5 μg/mL insulin, 500 ng/mL hydrocortisone, 10 ng/mL epidermal growth factor (EGF), 20 ng/mL cholera toxin, 300 U/mL collagenase III and 100 U/mL hyaluronidase), and digested for no more than 12 h with shaking at 100 rpm in humidified incubator at 37° C. supplemented with 5% CO2. After spinning down at 400 g at ambient temperature for 2 min, the cells were resuspended with 2 mL Digestion Buffer II (DMEM/F12 medium containing 5 mg/mL dispase II and 0.1 mg/mL deoxyribonuclease I), followed by digestion at ambient temperature for 5 min. The cells were then washed with 10 mL HBSS (Life Technologies, USA). […]
Briefly, cells at final concentrations of 1-2×10^6 cells per mL were aliquoted in 0.2 mL PCR tubes, then mixed with corresponding drugs and 2 μM ethidium homodimer 1 (Life Technologies, USA) by manual pipetting. […] Brightfield and red fluorescence images (Ex. 531/40 nm, Em. 593/40 nm) were taken under 10× magnification (Life Technologies EVOS FL Imaging System, USA).
For on chip assays, the number of cells was counted in brightfield and red fluorescence images from each well respectively. Cell viability was calculated as follows: […]

CC(C)C[C@H](NC(=O)[C@H](Cc1ccccc1)NC(=O)c1cnccn1)B(O)O [bortezomib]
dose dependence of normalized cell viability: dose-dependent reduction of cell viability
